According to patent US12448388B2, “PRMT5 inhibitors and uses thereof” (Gilead Sciences, Inc., priority 2023, dated 2025):
Where two headings read alike, the source gives them in different places.

Legend:
[1] = PK data (IV/PO) in cynomolgus monkey; conditions: in vivo; for clearance: read-out: Observed CL (converted); for Vd: read-out: Vss; for bioavailability: PO 0.5 mg/Kg
[2] = test system: LU99 (lung, giant cell carcinoma; MTAP-Deleted); assay: In vitro cell viability assay (CellTiter-Glo, 9 days), LU99; format: cell-based; conditions: Homo sapiens, Lu-99, 216 h, 9-day treatment
Procedure: (§1) Some Compounds of the Disclosure were tested in Calu-6 (Vendor: ATCC; Cat #HTB-56; Description: lung, adenocarcinoma), LU99 (Vendor: JCRB; Cat #JCRB0080; Description: lung, giant cell carcinoma), SW780 (Vendor: ATCC; Cat #CRL-2169; Description: bladder, urothelial carcinoma), and BxPC-3 (Vendor: ATCC; Cat #CRL-1687; Description: pancreas, adenocarcinoma) cellular viability assays according to the general protocol. Seeded cells into 96-well plate and incubated overnight. Seeded an additional 10 wells per cell line in an additional 96-well plate for assessing Time Zero luminescence and incubated overnight. To treatment plates, added compounds into each well using Tecan D300e dispenser (nine three-fold dilutions starting at […]) and incubated for 9 days. Time Zero (no compound treatment, luminescence assessed on day 1) and 9-day treatment (luminescence assessed on day 10) plates were assessed using the same CellTiter-Glo® substrate protocol. Thawed CellTiter-Glo® Buffer and lyophilized CellTiter-Glo® substrate and equilibrated to room temperature prior to use. Transferred 100 ml CellTiter-Glo® Buffer into amber bottle containing CellTiter-Glo® substrate to reconstitute the lyophilized enzyme/substrate mixture. For Time Zero and 9-day treatment plates, removed all plating media. Added 100 μl fresh media/well. Added 100 μl CellTiter-Glo® Reagent per well. Mixed contents for 10 min on an orbital shaker to lyse cells. Recorded luminescence with Perkin Elmer Envision 2105 machine. Analyzed the data with GraphPad software.

[3] = test system: SW780 (bladder, urothelial carcinoma; MTAP-Deleted); assay: In vitro cell viability assay (CellTiter-Glo, 9 days), SW780; format: cell-based; conditions: Homo sapiens, SW780, 216 h, 9-day treatment
Procedure: as §1

[4] = test system: Calu-6 (lung, adenocarcinoma; MTAP-WT); assay: In vitro cell viability assay (CellTiter-Glo, 9 days), Calu-6; format: cell-based; conditions: Homo sapiens, Calu-6, 216 h, 9-day treatment
Procedure: as §1

[5] = test system: Symmetric Di-methyl Arginine (SDMA) signal (PRMT5 inhibition) in HCT116 MTAP-deleted cells; assay: Symmetric di-methyl arginine image-based high content screen assay (SDMA assay), HCT116 MTAP-deleted; format: cell-based; conditions: for EC50: Homo sapiens, HCT-116, HCT116 MTAP-deleted, class symbols
Outline: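 HCT116 WT and MTAP-deleted cells (800/well, RPMI 1640 + 10% FBS) treated with compound 3 days at 37 °C; formalin-fixed, stained with anti-SDMA antibody/Alexa 488 plus DAPI. Mean SDMA intensity per DAPI-defined cell imaged; EC50 from 4-parameter logistic fit.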

[6] = test system: BxPC-3 (pancreas, adenocarcinoma; MTAP-Deleted); assay: In vitro cell viability assay (CellTiter-Glo, 9 days), BxPC-3; format: cell-based; conditions: Homo sapiens, BXPC-3, 216 h, 9-day treatment
Procedure: as §1

[7] = HCT116 WT versus HCT116 MTAP-deleted
[8] = HCT116 WT vs HCT116 MTAP-deleted

half-life ([1]; IV 0.5 mg/Kg) [h] | clearance ([1]; IV 0.5 mg/Kg) [mL/min/kg] | Vd ([1]; IV 0.5 mg/Kg) [L/kg] | bioavailability [1] [%] | GI50 [2] [nM] | GI50 [3] [nM] | GI50 [4] [nM] | EC50 selectivity [5, 7] | EC50 [5] [nM] | GI50 [6] [nM] | half-life ([1]; IV 0.25 mg/Kg) [h] | clearance ([1]; IV 0.25 mg/Kg) [mL/min/kg] | Vd ([1]; IV 0.25 mg/Kg) [L/kg] | EC50 selectivity [5, 8] | half-life ([1]; IV 0.33 mg/Kg) [h] | clearance ([1]; IV 0.33 mg/Kg) [mL/min/kg] | Vd ([1]; IV 0.33 mg/Kg) [L/kg] | SMILES
16 | 3 | 1.77 | 123 | 19 | 25 | > 10000 |  |  |  |  |  |  |  |  |  |  | C[C@H]1CN(C(=O)c2cc3c(cc2F)nc(N)c2cncn23)[C@H]2c3ccc(C(F)(F)F)cc3C[C@H]2O1 (single isomer, unassigned) [Ff-81]
 |  |  |  | 11 | 19 | 2150 | 117 | ≤ 1 | 12 |  |  |  |  |  |  |  | C[C@@H]1CN(C(=O)c2cc3c(cc2F)nc(N)c2cncn23)[C@H]2c3ccc(OC(F)(F)F)cc3C[C@H]2O1 (single isomer, unassigned) [Ff-183]
 |  |  | 84 | 6 | 9 | 1260 |  | ≤ 1 | 7 | 15.4 | 2 | 2.53 | 85 |  |  |  | Nc1nc2cnc(C(=O)N3CCC[C@@H]4Oc5cc(C(F)(F)F)cc(F)c5[C@@H]43)cc2n2cncc12 (single isomer, unassigned) [Fg-53]
 |  |  |  | 10 | 23 | 2510 |  | ≤ 1 | 11 | 10.7 | 2.17 | 2 | 114 |  |  |  | Nc1nc2cnc(C(=O)N3CCC[C@@H]4Oc5cc(OC(F)(F)F)cc(F)c5[C@@H]43)cc2n2cncc12 (single isomer, unassigned) [Fg-55]
11 | 3.17 | 1.7 | 108 | 4 | 5 | 2150 |  |  |  | 10.4 | 1.67 | 1.47 |  |  |  |  | Nc1nc2cc(F)c(C(=O)N3CCC[C@@H]4Oc5cc(C(F)(F)F)ccc5[C@@H]43)cc2n2cncc12 [Ff-104, (4-amino-7-fluoroimidazo[1,5-a]quinoxalin-8-yl)((4aS,9bS)-7-(trifluoromethyl)-3,4,4a,9b-tetrahydrobenzofuro[3,2-b]pyridin-1(2H)-yl)methanone]
 |  |  |  | 7 | 120 | 1550 | 118 | ≤ 1 | 7 |  |  |  |  |  |  |  | Nc1nc2cnc(C(=O)N3CCC[C@@H]4Oc5cc(C(F)(F)F)ccc5[C@@H]43)cc2n2cncc12 [Ff-110, (4-aminoimidazo[1,5-a]pyrido[3,4-e]pyrazin-8-yl)((4aS,9bS)-7-(trifluoromethyl)-3,4,4a,9b-tetrahydrobenzofuro[3,2-b]pyridin-1(2H)-yl)methanone]
 |  |  |  | 8 | 11 | > 6400 | 258 | ≤ 1 | 10 |  |  |  |  | 5.9 | 2.5 | 1.29 | Nc1nc2ccc(C(=O)N3CCC[C@@H]4Oc5cc(C(F)(F)F)ccc5[C@@H]43)cc2n2cncc12 [Ff-111, (4-aminoimidazo[1,5-a]quinoxalin-8-yl)((4aS,9bS)-7-(trifluoromethyl)-3,4,4a,9b-tetrahydrobenzofuro[3,2-b]pyridin-1(2H)-yl)methanone]
 |  |  |  | 17 | 23 | 2950 | 135 | ≤ 1 | 23 |  |  |  |  | 5.8 | 4 | 1.9 | Cc1ncc2c(N)nc3cnc(C(=O)N4CCC[C@@H]5Oc6cc(OC(F)(F)F)ccc6[C@@H]54)cc3n12 [Ff-340, (4-amino-1-methylimidazo[1,5-a]pyrido[3,4-e]pyrazin-8-yl)((4aS,9bS)-7-(trifluoromethoxy)-3,4,4a,9b-tetrahydrobenzofuro[3,2-b]pyridin-1(2H)-yl)methanone]
 |  |  |  | 13 | 10 | 2440 | 145 | ≤ 1 | 14 | 8 | 3.33 | 2.15 |  |  |  |  | Nc1nc2cnc(C(=O)N3CCC[C@@H]4Oc5cc(OC(F)(F)F)ccc5[C@@H]43)cc2n2cncc12 [Ff-341, (4-aminoimidazo[1,5-a]pyrido[3,4-e]pyrazin-8-yl)((4aS,9bS)-7-(trifluoromethoxy)-3,4,4a,9b-tetrahydrobenzofuro[3,2-b]pyridin-1(2H)-yl)methanone]
 |  |  |  |  |  |  |  |  |  |  |  |  |  | 1.39 | 24.5 | 1.93 | Cc1ncn2c1c(N)nc1cnc(C(=O)N3CCC[C@@H]4Oc5cc(C(F)(F)F)ccc5[C@@H]43)cc12 [Ff-499, (4-amino-3-methylimidazo[1,5-a]pyrido[3,4-e]pyrazin-8-yl)((4aS,9bS)-7-(trifluoromethyl)-3,4,4a,9b-tetrahydrobenzofuro[3,2-b]pyridin-1(2H)-yl)methanone]
 |  |  |  | 9 | 12 | 1660 |  | ≤ 1 | 8 |  |  |  | 50 |  |  |  | Nc1nc2cnc(C(=O)N3CC4(CC4)C[C@@H]4Oc5cc(C(F)(F)F)ccc5[C@@H]43)cc2n2cncc12 [Ff-648, (4-aminoimidazo[1,5-a]pyrido[3,4-e]pyrazin-8-yl)((4aS,9bS)-7-(trifluoromethyl)-4a,9b-dihydro-2H-spiro[benzofuro[3,2-b]pyridine-3,1′-cyclopropan]-1(4H)-yl)methanone]
 |  |  |  |  |  |  |  | ≤ 1 |  |  |  |  | 121 |  |  |  | Nc1nc2cnc(C(=O)N3CC[C@H]4C[C@@H]3c3ccc(C(F)(F)F)c(F)c3O4)cc2n2cncc12 [Ff-684, (4-aminoimidazo[1,5-a]pyrido[3,4-e]pyrazin-8-yl)((2S,6R)-10-fluoro-9-(trifluoromethyl)-3,4-dihydro-2H-2,6-methanobenzo[b][1,5]oxazocin-5(6H)-yl)methanone]
 |  |  |  |  |  |  |  | 1 to 5 |  |  |  |  | 108 |  |  |  | Nc1nc2cnc(C(=O)N3CC[C@H]4C[C@@H]3c3ccc(OC(F)(F)F)cc3O4)cc2n2cncc12 [Ff-685, (4-aminoimidazo[1,5-a]pyrido[3,4-e]pyrazin-8-yl)((2S,6R)-9-(trifluoromethoxy)-3,4-dihydro-2H-2,6-methanobenzo[b][1,5]oxazocin-5(6H)-yl)methanone]
 |  |  |  |  |  |  |  | ≤ 1 |  |  |  |  | 87 |  |  |  | [2H]C1([2H])CC[C@@H]2Oc3cc(C(F)(F)F)ccc3[C@@H]2N1C(=O)c1cc2c(cn1)nc(N)c1cncn12 [Fg-60, (4-aminoimidazo[1,5-a]pyrido[3,4-e]pyrazin-8-yl)((4aS,9bS)-7-(trifluoromethyl)-3,4,4a,9b-tetrahydrobenzofuro[3,2-b]pyridin-1(2H)-yl-2,2-d2)methanone]
